The test system of one series is Salmonella. Description: Study 1: test for antigens against Salmonella in the blood of pigs. Format: in vivo. The settings on record: for Relative risk: Salmonella, relative to control; for Pct. positives / Positives: Salmonella-positive blood samples; for Positives: of 126 (control) / 108 (study) samples. As for the experimental part: A subset of the pigs in both study groups were tested for Salmonella prior to shipping out of the test and to the meat processing facility by testing for antigens against Salmonella in the blood. An inclusion rate of 60% was desired for both groups but was not reached for the study group.

Series [1] is described as follows: Test of efficacy and safety: zinc source in dry feed of domesticated pigs, daily weight gain. The settings on record: for Average daily weight gain: 83 days. From the text: In a confirmation experiment the safety of using powdered zinc gluconate as a conventional dietary supplement in the dietary mineral supply of domesticated pigs was examined in a controlled study.
3 groups of pigs, each comprising 11 individuals were identically fed save for the source of zinc as according to Table 1. Group 1, which was the control group, was fed […] 75% zinc oxide per ton dry feed according to normal feeding recommendations. Group 2 was fed zinc gluconate as a powder. Group 3 was fed zinc gluconate and further including 100 g Micro Aid® per ton feed. The amount of zinc fed to the animals of the three study groups was identical and corresponding to 23 g zinc per ton dry feed. Micro Aid® is dietary supplement known to enhance growth and reduce ammonia excretions in domesticated pigs. It is a registered trade mark of DPI Global, 17656 Avenue 168, Porterville, Calif. 93257. Micro Aid® has a recognized effect on the growth increase of pigs on the order of 4% per 100 g added Micro Aid® per ton feed.
The daily gain of weight for each individual was registered during the trial period and the trial was terminated after 83 days. For comparison the expected weight gain of adding Micro Aid® to a feed mixture comprising one of the two zinc sources has been calculated.

The nature of series [2]: Study 1: randomized trial of 0.05% zinc gluconate in pellet feed, productivity and health of pigs. The settings on record: for combined disease and mortality withdrawal rate / pigs treated for diarrhea during the study period: 204 pigs per group, 12 weeks. As for the experimental part:
In a randomized trial the effect of the addition of 0.05% zinc gluconate to a standard pellet feed was tested for efficacy against Salmonella, health condition of the digestive system including stomach and intestines, and productivity in pigs, and compared to an otherwise identical diet without zinc gluconate. The control group received zinc in the form of zinc oxide to the same amount as the study group.
408 pigs from a single farm were randomly partitioned into two groups of 204 pigs each and fed with either a pelleted control feed or an otherwise identical pelleted feed comprising 0.05% zinc gluconate. In order maintain comparability of control group to study group and to diminish the influence of lung disease on the mortality of the control group, both groups were twice vaccinated with Porcilis against severe lung disease.
All pigs were followed for 12 weeks starting with their inclusion into the trial and ending with their transport to a meat processing plant. For all pigs in the study data on the feed uptake, growth, eventual diseases suffered during the study period were collected as well as including the complete slaughter records of the meat processing plant into the study. Pigs were included into the trial upon reaching an entry weight of on the average 33 kg. The pigs were weighed at inclusion into the trial, after 6 weeks, and after 12 weeks. […] The pigs in the study were allowed to eat and drink freely and the access to water and dietary was unrestricted.

A short description of series [3]: Study 2: comparison of two farms, open wounds and footpad lesions in sows. Format: in vivo. On the procedure:
(§1) A controlled comparison study between two groups of pigs at two farms in the province of Nordjylland, Denmark, was performed, each farm having about 600 sows in production and each farm feeding the sows in the production zinc according to veterinarian recommendations of 75 ppm zinc per FU. At farm 1, the sows received zinc in the form of zinc oxide whereas at farm 2, the sows received zinc in the form of zinc gluconate.

Series [4] is described as follows: Study 3: birth weight of piglets and milk production of sows. Format: in vivo. As for the experimental part: as §1
For series [5] the following is noted: administered as pills; cited from earlier work.
Setting [6] is: pigs, 11 per group, 23 g zinc per ton dry feed.
Where [7] appears, read: pigs having weights between 33-65 kg.
Where [8] appears, read: pigs weighing between 65-105 kg.

Results on two compounds are retold here after US20200268019A1, “USE OF ZINC AND COPPER GLUCONATE IN THE TREATMENT OF METHICILLIN-RESISTANT STAPHYLOCOCCUS AUREUS” (Distributors Processing, Inc., priority 2015, published 2020).

In the series on Salmonella, zinc gluconate registered a Relative risk of 0.56, a Pct. positives of 22.2% and a Positives of 24. In addition, the “Average daily weight gain” value in series [1] (Group 3: zinc gluconate further including 100 g Micro Aid per ton feed) is on record as 910 g/daily. Further, the “Average daily weight gain” value in series [1] (setting [6]) was found to be 875 g/daily. In addition, in series [1] (regular inspection by a veterinarian), the “signs of malnourishment or increased infection levels” value is reported as “no signs of these conditions were observed”. Also, in series [2], the “combined disease and mortality withdrawal rate” value stood at 1.7%; the “pigs treated for diarrhea during the study period” value is given as “about 15%”. Further, in series [2] (average, whole trial 33-105 kg), the “feeding units (FU) to achieve 1 kg of growth” value (from here on “feeding units (FU)”) amounted to 2.78 FU/kg. In addition, in series [2] (setting [7]), the “feeding units (FU)” value is recorded as 2,51 FU/kg. In series [2] (setting [8]), the “feeding units (FU)” value amounted to 3.00 FU/kg. Moreover, the “sows suffering from lesions on their footpads” value in series [3] (sows of farm 2, 75 ppm zinc per FU) is recorded as “disappeared almost completely”. Also, in series [3] (sows, 75 ppm zinc per FU, within a month of the dietary change), the “number of open wounds” value is “rapid decrease in the number of open wounds”. In series [4] (farm 2 compared to farm 1 (zinc oxide)), the “milk production of the sows” value was “increased compared to the sows of farm 1”. Also, the “weight of piglets at birth” value in series [4] (sows of farm 2) is on record as “above average weight at birth”.
For the compound `[O]=[Zn]` [zinc oxide, reference compound], in series [5], the “added zinc taken up by the digestive system” value is given as 20%. Besides, in the series with Salmonella, the Relative risk came to 1, the Pct. positives is 30.2% and the Positives is 38. Also, in series [1] (setting [6]), the “Average daily weight gain” value was 822 g/daily. In series [2], the “combined disease and mortality withdrawal rate” value is listed as 1.7%; the “pigs treated for diarrhea during the study period” value is reported as “about 15%”. Moreover, in series [2] (average, whole trial 33-105 kg), the “feeding units (FU)” value is 2,85 FU/kg. In addition, the “feeding units (FU)” value in series [2] (setting [7]) is recorded as 2,53 FU/kg. In addition, the “feeding units (FU)” value in series [2] (setting [8]) is reported as 3.13 FU/kg.
